Two compounds from article PMC5329948, “Caspase vinyl sulfone small molecule inhibitors prevent axonal degeneration in human neurons and reverse cognitive impairment in Caspase-6-overexpressing mice” (Molecular Neurodegeneration, 2017) can be followed below.

The target in assay [1] is T1, recombinant Caspase-1 (Homo sapiens, UniProt P29466).
T1 construct: purchased BioVision
The experiment in a line: Caspase Inhibitor Drug Screening Kit (BioVision), WAD-AFC substrate. The class given is biochemical. The conditions noted are these: not active site titrated. How it is done:
(§1) The half-maximal inhibitory concentrations (IC50) for NWL inhibitors (Patent publication # WO/2009/140765, WO/2010/133000, and WO/2012/140500) was determined by incubating 0 to 20 μM NWL-117 and NWL-154 with 20 nM of active site-titrated Casp6 in SB at room temperature for 5 minutes. Then, 10 μM Ac-VEID-AFC was added and fluorescence measured for 20 min at 37 °C as described above. New World Laboratories performed the IC50 determination for NWL inhibitors dissolved in dimethyl sulfoxide (DMSO) against recombinant Casp1-10 using the Caspase Inhibitor Drug Screening Kits (BioVision, San Francisco, CA) following the manufacturer’s instructions and the preferred substrates for the caspases (Caspase-1: WAD-AFC, Caspase-2: VDVAD-AFC, Caspase-3: DEVD-AFC, Caspase-4: LEVD-AFC, Caspase-5: WEHD-AFC, Casp6:VEID-AFC, Caspase-7: DEVD-AFC, Caspase-8: IETD-AFC, Caspase-9: LEHD-AFC, Caspase-10: AEVD-AFC). In transfected HCT116 cells, 0 to 100 μM NWL inhibitors were added in the culture media and left on the cells for 2 h. Cells were washed once with 1 mL ice-cold PBS, incubated on ice for 5 min with 200 μL cell lysis buffer (CLB) (50 mM HEPES, 0.1% CHAPS, 0.1 mM EDTA), and gently scraped off. Protein concentrations were determined by Bradford assay (BioRad, Mississauga, ON, CA) by measuring the absorbance at 595 nm using the BioTek Synergy H4 plate reader. […]

In assay [2] the target is T2, recombinant Caspase-2 (Homo sapiens, UniProt P42575).
T2 construct: purchased BioVision
The assay can be described thus: Caspase Inhibitor Drug Screening Kit (BioVision), VDVAD-AFC substrate. To be noted: not active site titrated. The class given is biochemical. The procedure: as §1

The target in assay [3] is T3, recombinant Caspase-9 (Homo sapiens, UniProt P55211).
T3 construct: purchased BioVision
The experiment in a line: Caspase Inhibitor Drug Screening Kit (BioVision), LEHD-AFC substrate. The class given is biochemical. The conditions noted are these: not active site titrated. How it is done: as §1

The target of assay [4] is T4, Casp6 in serum-deprived primary human neurons (Homo sapiens, UniProt P55212).
T4 construct: endogenous in cells; host or cells: primary human CNS neurons from cortical tissue, serum-deprived
The assay can be described thus: Casp6 activity in serum-deprived primary human neurons (VEIDase, FLICA, TubΔCasp6). The class given is cell-based. The conditions noted are these: 100 μM. How it is done: HCT116: Human colon carcinoma (HCT116) cells (ATCC, Manassas, VA, USA) were cultured in McCoy’s 5A modified media (Thermo Fisher Scientific, Waltham, MA, USA) supplemented with 10% fetal bovine serum (Thermo Fisher Scientific, Waltham, MA, USA) and transfected with 1 μg of pCep4βCasp6p20p10 mixed with 8 μg of polyethyleneimine (Polysciences Inc., Warrington, PA, USA). Protein expression was allowed for 24 h before treating with vehicle (PBS), 100 μM NWL-117, or 100 μM NWL-154 for 2 h. For NWL inhibitor kinetic experiments, 100 μM of NWL-117 or NWL-154 was added at 120, 90, 60, 30, 15, or 0 min before harvest. […]
Recombinant or extracted cellular Casp6 activity: Casp6 activity was assessed by in vitro fluorogenic assays using Ac-Val-Glu-Ile-Asp-(7-Amino-4-trifluoromethylcouramin) (Ac-VEID-AFC: Enzo LifeSciences, NY, USA) as the Casp6 substrate. The activity was measured in Stennicke’s buffer (SB) (20 mM piperazine-N, N-bis (2-ethanesulfonic acid) (PIPES: BioShop Canada Inc, Burlington, Ontario, CA) pH 7.2, 30 mM NaCl, 1 mM ethylenediaminetetraacetic acid (EDTA), 0.1% 3-[(3-cholamidopropyl)-dimethylammonio]-2-hydroxy-1-propanesulfonic acid (CHAPS), 10% sucrose). […] Fluorescence units were converted to the moles of AFC released based on a standard curve of 0–625 picomoles of free AFC. Cleavage rates were calculated from the linear phase of the assay. […]

pIC50: −log10 of the molar value.

T4 sequence (P55212 24-293): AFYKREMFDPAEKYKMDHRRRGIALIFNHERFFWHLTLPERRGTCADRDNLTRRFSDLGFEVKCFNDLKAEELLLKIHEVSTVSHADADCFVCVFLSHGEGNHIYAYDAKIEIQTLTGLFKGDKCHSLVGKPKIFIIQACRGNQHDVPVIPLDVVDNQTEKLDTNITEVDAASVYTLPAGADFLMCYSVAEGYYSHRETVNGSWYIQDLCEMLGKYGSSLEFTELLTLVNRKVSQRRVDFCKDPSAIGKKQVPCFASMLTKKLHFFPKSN
T2 sequence (P42575 whole entry): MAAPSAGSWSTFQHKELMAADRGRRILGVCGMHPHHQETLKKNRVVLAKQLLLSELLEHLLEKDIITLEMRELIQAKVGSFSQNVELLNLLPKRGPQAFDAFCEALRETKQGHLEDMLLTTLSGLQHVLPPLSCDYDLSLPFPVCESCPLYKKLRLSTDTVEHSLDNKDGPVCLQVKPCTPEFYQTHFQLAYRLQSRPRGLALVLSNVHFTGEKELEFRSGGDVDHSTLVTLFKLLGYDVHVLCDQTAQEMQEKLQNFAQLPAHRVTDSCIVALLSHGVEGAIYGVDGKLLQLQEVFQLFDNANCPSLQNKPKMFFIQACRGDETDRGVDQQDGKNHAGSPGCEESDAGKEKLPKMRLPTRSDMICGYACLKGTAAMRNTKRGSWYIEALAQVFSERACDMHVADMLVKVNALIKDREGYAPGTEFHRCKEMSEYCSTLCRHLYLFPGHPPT
T1 sequence (P29466 120-404): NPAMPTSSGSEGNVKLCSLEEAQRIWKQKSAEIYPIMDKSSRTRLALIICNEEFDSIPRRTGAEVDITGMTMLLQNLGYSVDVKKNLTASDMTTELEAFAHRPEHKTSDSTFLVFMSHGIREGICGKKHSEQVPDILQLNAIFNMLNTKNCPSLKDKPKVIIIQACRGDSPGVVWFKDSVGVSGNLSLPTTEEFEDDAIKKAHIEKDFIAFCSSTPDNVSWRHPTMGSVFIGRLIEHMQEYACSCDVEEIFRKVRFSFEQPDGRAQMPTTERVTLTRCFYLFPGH
T3 sequence (P55211 whole entry): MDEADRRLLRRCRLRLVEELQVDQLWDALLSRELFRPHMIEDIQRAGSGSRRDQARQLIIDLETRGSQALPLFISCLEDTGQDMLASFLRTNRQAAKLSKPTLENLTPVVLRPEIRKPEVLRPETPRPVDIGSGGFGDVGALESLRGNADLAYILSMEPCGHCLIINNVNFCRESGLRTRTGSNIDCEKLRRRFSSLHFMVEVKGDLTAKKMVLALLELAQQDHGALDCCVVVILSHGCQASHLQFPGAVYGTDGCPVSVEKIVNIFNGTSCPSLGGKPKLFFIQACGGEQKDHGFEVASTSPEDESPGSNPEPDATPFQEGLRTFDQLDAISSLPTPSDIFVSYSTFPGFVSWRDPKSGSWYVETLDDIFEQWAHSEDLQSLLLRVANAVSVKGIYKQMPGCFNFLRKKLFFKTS

For orientation: pIC50 means −log10 of the IC50, conventionally taken in molar units. Regarding `CCC(C)[C@H](NC(=O)[C@H](CCC(=O)O)NC(=O)[C@@H](NC(=O)OCc1ccccc1)C(C)C)C(=O)N[C@H](/C=C/S(C)(=O)=O)CC(=O)O` (some centres unmarked) [NWL-117], the negative-log IC50 (pIC50) in assay [1] is 5.57; in assay [2] it was under 4.00; in assay [3] it was 6.10. Besides, in assay [4], the “Casp6 fluorogenic and FLICA-measured activity and TubΔCasp6” value is given as “decreased”.

As for `CCC(C)[C@H](NC(=O)[C@H](CCC(=O)O)NC(=O)[C@@H](NC(=O)OCc1ccccc1)C(C)C)C(=O)N[C@H](/C=C(\Cl)S(C)(=O)=O)CC(=O)O` (some centres unmarked) [NWL-154], the negative logarithm of the IC50 (pIC50) in assay [1] was 5.41; in assay [2], under 4.00; in assay [3], 5.19. Moreover, the “Casp6 fluorogenic and FLICA-measured activity and TubΔCasp6” value in assay [4] is recorded as “decreased”.
